Data as given in US5698411A, “Method for determining activity of enzymes in metabolically active whole cells” (priority 1995, dated 1997).
Where a name gives a salt, the structure may show the parent alone.

Key:
Format in all cases: cell-based, human
granulocytes = test: aberrant enzyme activities in febrile children, granulocytes (Table 7)
lymphocytes = test: aberrant enzyme activities in febrile children, lymphocytes (Table 7)
monocytes = test: aberrant enzyme activities in febrile children, monocytes (Table 7)

SMILES: C[C@H](NC(=O)OCc1ccccc1)C(=O)N[C@@H](C)C(=O)Nc1ccc2c(c1)Oc1cc(NC(=O)[C@H](C)NC(=O)[C@H](C)NC(=O)OCc3ccccc3)ccc1C21OC(=O)c2ccccc21 [Z-AA, (Z-Ala--Ala)2 Rho 110]
- aberrant enzyme activity, GRANS (granulocytes; P96 Viral Syndrome): .smallcircle.
- aberrant enzyme activity, GRANS (granulocytes; P97 Pyelonephritis): .smallcircle.
- aberrant enzyme activity, GRANS (granulocytes; P99 Viral Syndrome): .smallcircle.
- aberrant enzyme activity, GRANS (granulocytes; P102 UTI): .smallcircle.
- aberrant enzyme activity, GRANS (granulocytes; P103 Viral Syndrome): .smallcircle.
- aberrant enzyme activity, LYMPHS (lymphocytes; P99 Viral Syndrome): .smallcircle.
- aberrant enzyme activity, LYMPHS (lymphocytes; P102 UTI): .smallcircle.
- aberrant enzyme activity, MONOS (monocytes; P96 Viral Syndrome): .smallcircle.
- aberrant enzyme activity, MONOS (monocytes; P97 Pyelonephritis): .smallcircle.
- aberrant enzyme activity, MONOS (monocytes; P99 Viral Syndrome): .smallcircle.
- aberrant enzyme activity, MONOS (monocytes; P102 UTI): .smallcircle.
- aberrant enzyme activity, MONOS (monocytes; P103 Viral Syndrome): .smallcircle.

SMILES: O=C1OC2(c3ccc(OC4O[C@H](CO)[C@@H](O)[C@H](O)[C@H]4O)cc3Oc3cc(OC4O[C@H](CO)[C@@H](O)[C@H](O)[C@H]4O)ccc32)c2ccccc21 (stereo partly drawn) [DGLUC, (D-glucose)2 fluorescein]
- aberrant enzyme activity, GRANS (granulocytes; P88 Enteritis): .smallcircle.
- aberrant enzyme activity, GRANS (granulocytes; P89 Viral Stomatitis): + (>0.25 Increase over normal range)
- aberrant enzyme activity, GRANS (granulocytes; P92 Adenitis): + (>0.25 Increase over normal range)
- aberrant enzyme activity, GRANS (granulocytes; P103 Viral Syndrome): + (>0.25 Increase over normal range)
- aberrant enzyme activity, LYMPHS (lymphocytes; P88 Enteritis): .smallcircle.
- aberrant enzyme activity, LYMPHS (lymphocytes; P89 Viral Stomatitis): .smallcircle.
- aberrant enzyme activity, LYMPHS (lymphocytes; P92 Adenitis): .smallcircle.
- aberrant enzyme activity, LYMPHS (lymphocytes; P103 Viral Syndrome): - (>0.25 Decrease over normal range)
- aberrant enzyme activity, MONOS (monocytes; P88 Enteritis): - (>0.25 Decrease over normal range)
- aberrant enzyme activity, MONOS (monocytes; P89 Viral Stomatitis): .smallcircle.
- aberrant enzyme activity, MONOS (monocytes; P92 Adenitis): - (>0.25 Decrease over normal range)
- aberrant enzyme activity, MONOS (monocytes; P103 Viral Syndrome): + (>0.25 Increase over normal range)

SMILES: C[C@H](N)C(=O)N[C@@H](C)C(=O)Nc1ccc2c(c1)Oc1cc(NC(=O)[C@H](C)NC(=O)[C@H](C)N)ccc1C21OC(=O)c2ccccc21 [AA-TFA, (H-L-Ala--Ala)2 Rho 110 .2TFA]
- aberrant enzyme activity, LYMPHS (lymphocytes; P92 Adenitis): .smallcircle.
- aberrant enzyme activity, LYMPHS (lymphocytes; P97 Pyelonephritis): .smallcircle.
- aberrant enzyme activity, LYMPHS (lymphocytes; P103 Viral Syndrome): .smallcircle.
